The target in the assay is T1, VIPR2 (Homo sapiens, UniProt P41587).
T1 sequence (P41587 24-438): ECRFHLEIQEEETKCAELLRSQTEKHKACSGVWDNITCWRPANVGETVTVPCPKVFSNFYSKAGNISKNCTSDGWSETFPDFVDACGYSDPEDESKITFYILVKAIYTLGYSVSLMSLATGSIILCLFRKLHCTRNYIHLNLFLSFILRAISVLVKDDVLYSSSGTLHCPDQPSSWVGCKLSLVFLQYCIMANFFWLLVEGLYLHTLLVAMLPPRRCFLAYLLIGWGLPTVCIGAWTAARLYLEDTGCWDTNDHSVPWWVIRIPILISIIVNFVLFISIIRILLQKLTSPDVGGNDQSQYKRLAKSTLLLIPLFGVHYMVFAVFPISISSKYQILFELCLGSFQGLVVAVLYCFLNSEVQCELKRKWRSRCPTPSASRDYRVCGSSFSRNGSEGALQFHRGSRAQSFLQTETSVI
Nature of the assay: BRET-based VIPR2 activation assay (CAMYEL cAMP sensor, CHO cells, VIP background). It counts as cell-based. The conditions noted are these: for VIPR2 inhibition in BRET-based assay (in words): FIG. 1C, FIG. 5. An excerpt: In such a system, a detector cell is used which expresses both the VIPR2 receptor and “CAMYEL,” a YFP-Epac-RLuc8 BRET sensor construct. This construct includes Epac1, a guanine nucleotide exchange factor activated by direct binding of cAMP, fused with an enhanced YFP and Renilla luciferase 8 (Rluc8) allowing BRET upon cAMP-induced conformational changes (Jiang et al., 2007, J Biol Chem. 282:10576-10584). In response to elevated cAMP levels, there is a conformational change in Epac and therefore a change in the proximity of the fused chromophores, Rluc8 and YFP, resulting in measurable energy transfer. Coexpression of this BRET construct with VIPR2, optionally tagged at the N-terminus with a signal peptide and FLAG epitope (SF-VIPR2), for example in HEK293 cells, allows for detection of a VIPR2-specific response to cAMP. BRET readout may be calculated by quantifying the ratio of the light emitted by the acceptor, YFP (λ=525 nm), over the emission from the donor, RLuc8 (λ=485 nm). The proximity of the donor and acceptor, and therefore the BRET ratio, decreases in the presence of cAMP. In non-limiting specific embodiments, a stable cell line may be generated for this assay using the Flp-In T-Rex system in HEK293 cells. This system allows site-specific single copy integration of the gene of interest and control of expression levels using the Tet-repressor site making receptor expression tetracycline-inducible. For example, a CAMYEL and VIPR2 expressing line may be induced with 0.01 μg/ml tetracycline, then, 24 hours later cells may be collected and distributed into 96-well plates. After treatment with candidate inhibitor compound, for example at 5, 1 and 0.5 μM concentrations, cells may be incubated with the light emitting luciferin, coelenterazine H, for 5 min and incubated for 5 min with VIP at increasing concentrations, for example ranging from […] to 10 μM. The fluorescence and luminescence may then be quantified, for example using a PHERAstar (BMG) plate reader. […] Alternatively, analogous experiments may be performed using human cells harvested from a patient having a VIPR2 copy number variation, for example (but not by way of limitation) pluripotent stem cells prepared from such a patient and then transfected with a CAMYEL construct.
Numerous cellular assays were developed that were able to detect VIP responses absent of interference from non-specific vasopressin receptors using this CHO based system. VIPR2 is a Gs coupled receptor. Activation of VIPR2 by VIP leads to both an elevation in cAMP signaling and the recruitment of β-arrestin. A variety of combinations can be transiently transfect into these CHO cells for the assessment of cellular responses to VIP. For the BRET readout CHO cell lines expressing an YFP-Epac-RLuc8 (CAMYEL) BRET sensor were used to detect changes in cAMP. This construct includes Epac1, a guanine nucleotide exchange factor activated by direct binding of cAMP, fused to an enhanced YFP and RLuc8 allowing a change in BRET upon cAMP-induced conformational changes. The key for medium to high throughput screening assays is the use of stable cell lines allowing the continuous assaying of multiple compounds with the ability to generate large numbers of cells for rapid use. In these lines VIPR2 was expressed as one of the stable cell lines assays. This was introduced into the CHO-Flp-IN to allow the generation of isogenic stable cell lines expressing high levels of VIPR2 under control of the CMV promoter. This has been introduced into this line together with the CAMYEL construct previously described. This allows for detection of VIPR2-specific responses to cAMP. EYFP fluorescence and RLuc8 luminescence is quantified in the presence of 5 μM light-emitting luciferin, coelenterazine H, using a PHERAstar (BMG) plate reader. BRET is calculated by quantifying the ratio of the light emitted by the acceptor, YFP (λ=525 nm), over the emission from the donor, RLuc8 (λ=485 nm).
3. […]

Setting [1] is: Table 2, read-out: BRET results (IC50).

Each structure is given as a SMILES string. “Also recorded” adds a separate entry of the source. Like-named read-outs stand apart in the source and are kept apart here.

Results on 6 molecules are retold here after patent US20150239831A1, “INHIBITORS OF CENTRAL NERVOUS SYSTEM VASOACTIVE INHIBITORY PEPTIDE RECEPTOR 2” (The Trustees Of Columbia University In The City Of New York, priority 2012, published 2015).

In the case of `O=C(N[C@H]1c2ccccc2C[C@H]1O)[C@H](Cc1ccccc1)C[C@H](O)CNS(=O)(=O)c1ccc(C(F)(F)F)cc1` [F], the “VIPR2 inhibition in BRET-based assay (in words)” value is reported as “greater activity than Compound 1; also recorded: greater effect on V IPR2 inhibition than Compound 1”. Under setting [1], the IC50 was determined as 2340 nM.

Turning to `CC(=O)c1ccc(S(=O)(=O)NC[C@@H](O)C[C@@H](Cc2ccccc2)C(=O)N[C@H]2c3ccccc3C[C@H]2O)cc1` [K], the “VIPR2 inhibition in BRET-based assay (in words)” value is recorded as “significantly improved activity as an antagonist at VIPR2”. The IC50 (Table 1, read-out: IC50) was 426 nM. For the same molecule, under setting [1], the IC50 was 426 nM.

`N#Cc1ccc(S(=O)(=O)NC[C@@H](O)C[C@@H](Cc2ccccc2)C(=O)N[C@H]2c3ccccc3C[C@H]2O)cc1` [C]: the IC50 is, setting by setting: (Table 1, read-out: IC50) 1330 nM; under setting [1], 1330 nM.

As to `Cc1ccc(S(=O)(=O)NC[C@@H](O)C[C@@H](Cc2ccccc2)C(=O)N[C@H]2c3ccccc3C[C@H]2O)cc1` [I], the IC50 (Table 1, read-out: IC50) is 1180 nM and the IC50 under setting [1] amounted to 1980 nM.

On to `COc1ccc(S(=O)(=O)NC[C@@H](O)C[C@@H](Cc2ccccc2)C(=O)N[C@H]2c3ccccc3C[C@H]2O)cc1` [E], for which the 50% inhibitory concentration (IC50) stood at 1020 nM (Table 1, read-out: IC50) and 1020 nM under setting [1].

Consider `CC(C)c1ccc(S(=O)(=O)NC[C@@H](O)C[C@@H](Cc2ccccc2)C(=O)N[C@H]2c3ccccc3C[C@H]2O)cc1` [Compound A10], for which the IC50 under setting [1] turned out to be 3440 nM.

The term IC50 denotes the concentration that gives 50% inhibition.
